We go through 17 compounds from PubChem BioAssay AID328 (DTP/NCI, 2004).

This assay deals with BDF1 mice, P388 leukemia ip, median survival T/C. Description: NCI In Vivo Anticancer Drug Screen. Data for tumor model P388 Leukemia (intraperitoneal) in B6D2F1 (BDF1) mice. To be noted: endpoint: median survival time, higher = longer survival. A digest of the protocol: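 In tumour-bearing mice, survival after compound treatment is set against the vehicle group and given as a quotient.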

Setting [1] is: dose: 100.0 mg/kg/injection, schedule: Q04DX003 (ip), vehicle: Klucel (hydroxypropylcellulose) (HPC).
[2] abbreviates: dose: 200.0 mg/kg/injection, schedule: Q04DX003 (ip), vehicle: Klucel (hydroxypropylcellulose) (HPC).
[3] abbreviates: dose: 100.0 mg/kg/injection, schedule: Q01DX009 (ip), vehicle: saline with Tween-80.
Where [4] appears, read: dose: 200.0 mg/kg/injection, schedule: Q01DX009 (ip), vehicle: saline with Tween-80.
[5] abbreviates: dose: 50.0 mg/kg/injection, schedule: Q01DX009 (ip), vehicle: Klucel (hydroxypropylcellulose) (HPC).
[6] abbreviates: dose: 100.0 mg/kg/injection, schedule: Q01DX009 (ip), vehicle: Klucel (hydroxypropylcellulose) (HPC).
Setting [7] is: dose: 25.0 mg/kg/injection, schedule: Q01DX009 (ip), vehicle: saline with Tween-80.
Where [8] appears, read: dose: 50.0 mg/kg/injection, schedule: Q01DX009 (ip), vehicle: saline with Tween-80.

Values joined by “and” are separate entries in the source; they are usually repeats but may differ in a detail not shown here. Equal entries are not always repeated. Inconclusive results and toxic doses are left out.

`ClCCN(CCCl)c1cc(OCc2ccccc2)cc(OCc2ccccc2)c1`: the T/C reads like this: (dose: 6.25 mg/kg/injection, schedule: Q01DX009 (ip), vehicle: water) 91 % of control; (dose: 12.5 mg/kg/injection, schedule: Q01DX009 (ip), vehicle: water) 88 % of control; (dose: 25.0 mg/kg/injection, schedule: Q01DX009 (ip), vehicle: water) 86 % of control; (dose: 25.0 mg/kg/injection, schedule: Q04DX003 (ip), vehicle: water) 91 % of control; (dose: 50.0 mg/kg/injection, schedule: Q01DX009 (ip), vehicle: water) 88 % of control; (dose: 50.0 mg/kg/injection, schedule: Q04DX003 (ip), vehicle: water) 89 % of control. Further, the T/C was 98 % of control (dose: 100.0 mg/kg/injection, schedule: Q01DX009 (ip), vehicle: water); 121 % of control (dose: 100.0 mg/kg/injection, schedule: Q04DX003 (ip), vehicle: water); 92 % of control and 97 % of control (dose: 200.0 mg/kg/injection, schedule: Q01DX009 (ip), vehicle: water); 97 % of control (dose: 200.0 mg/kg/injection, schedule: Q04DX003 (ip), vehicle: water); 89 % of control (dose: 400.0 mg/kg/injection, schedule: Q04DX003 (ip), vehicle: water).

For the compound `CC1(C)COC(c2ccccc2)=N1`, the T/C is, setting by setting: (dose: 100.0 mg/kg/injection, schedule: Q01DX001 (ip), vehicle: saline sonified) 100 % of control; (dose: 200.0 mg/kg/injection, schedule: Q01DX001 (ip), vehicle: saline sonified) 100 % of control; (dose: 400.0 mg/kg/injection, schedule: Q01DX001 (ip), vehicle: saline sonified) 110 % of control.

For the compound `CO/N=C1\CC(C)N2C(=O)C(C(C)C)NC(=O)C(NC(=O)c3c4nc5c(C(=O)NC6C(=O)NC(C(C)C)C(=O)N7C(C)CC(O)C7C(=O)N(C)CC(=O)N(C)C(C(C)C)C(=O)OC6C)ccc(C)c5oc-4c(C)c(=O)c3N)C(CO)OC(=O)C(C)N(C)C(=O)CN(C)C(=O)C12` (stereo unspecified), the T/C (dose: 0.05 mg/kg/injection, schedule: Q01DX009 (ip), vehicle: saline + alcohol) was 99 % of control; the T/C (dose: 0.1 mg/kg/injection, schedule: Q01DX009 (ip), vehicle: saline + alcohol) was 100 % of control; the T/C (dose: 0.15 mg/kg/injection, schedule: Q04DX003 (ip), vehicle: saline + alcohol) was 98 % of control; the T/C (dose: 0.2 mg/kg/injection, schedule: Q01DX009 (ip), vehicle: saline + alcohol) was 102 % of control; the T/C (dose: 0.3 mg/kg/injection, schedule: Q04DX003 (ip), vehicle: saline + alcohol) was 100 % of control; the T/C (dose: 0.4 mg/kg/injection, schedule: Q01DX001 (ip), vehicle: saline + alcohol) is 92 % of control. Besides, the T/C by setting is: (dose: 0.6 mg/kg/injection, schedule: Q04DX003 (ip), vehicle: saline + alcohol) 105 % of control; (dose: 0.8 mg/kg/injection, schedule: Q01DX001 (ip), vehicle: saline + alcohol) 110 % of control; (dose: 1.2 mg/kg/injection, schedule: Q04DX003 (ip), vehicle: saline + alcohol) 107 % of control; (dose: 1.6 mg/kg/injection, schedule: Q01DX001 (ip), vehicle: saline + alcohol) 110 % of control; (dose: 2.4 mg/kg/injection, schedule: Q04DX003 (ip), vehicle: saline + alcohol) 115 % of control; (dose: 3.2 mg/kg/injection, schedule: Q01DX001 (ip), vehicle: saline + alcohol) 118 % of control.

On to `Cc1c(CCl)c(C)c(CCl)c(C)c1CCl`, for which, under setting [1], the T/C is 108 % of control.

As for `CCOC(=O)C(C)C(O)(c1ccccc1)c1ccccc1` (stereo unspecified), the T/C under setting [1] was 100 % of control; the T/C under setting [2] was 104 % of control; the T/C (dose: 400.0 mg/kg/injection, schedule: Q04DX003 (ip), vehicle: Klucel (hydroxypropylcellulose) (HPC)) was 104 % of control.

As to `C=CCOCCO`, the T/C is 112 % of control (dose: 100.0 mg/kg/injection, schedule: Q01DX009 (ip), vehicle: saline); 91 % of control (dose: 100.0 mg/kg/injection, schedule: Q04DX003 (ip), vehicle: saline); 112 % of control (dose: 200.0 mg/kg/injection, schedule: Q01DX009 (ip), vehicle: saline); 95 % of control (dose: 200.0 mg/kg/injection, schedule: Q04DX003 (ip), vehicle: saline); 100 % of control (dose: 400.0 mg/kg/injection, schedule: Q01DX009 (ip), vehicle: saline); 108 % of control (dose: 400.0 mg/kg/injection, schedule: Q04DX003 (ip), vehicle: saline).

With `CCOC(=O)c1ccc(N)c(C(O)(C(F)(F)F)C(F)(F)F)c1`, the T/C was 90 % of control under setting [3]; 100 % of control under setting [4]; 104 % of control (dose: 400.0 mg/kg/injection, schedule: Q01DX009 (ip), vehicle: saline with Tween-80).

Take `CC1(C)CC(C(N)=O)C(C)(C)N1O` (stereo unspecified): the T/C is 109 % of control (dose: 100.0 mg/kg/injection, schedule: Q01DX001 (ip), vehicle: saline); 86 % of control (dose: 200.0 mg/kg/injection, schedule: Q01DX001 (ip), vehicle: saline); 100 % of control (dose: 400.0 mg/kg/injection, schedule: Q01DX001 (ip), vehicle: saline).

For `Cc1cccc(-c2nc3cc(Cl)ccc3c(=O)o2)c1`, the T/C is 104 % of control under setting [5]; 95 % of control (dose: 50.0 mg/kg/injection, schedule: Q04DX003 (ip), vehicle: Klucel (hydroxypropylcellulose) (HPC)); 109 % of control under setting [6]; 100 % of control under setting [1]; 95 % of control under setting [2].

For the compound `CNC(=O)OCCN(CCOC(=O)NC)C(=O)N1c2ccccc2Sc2ccccc21`, the T/C under setting [7] was 95 % of control and 107 % of control; the T/C under setting [8] is 98 % of control; the T/C under setting [3] was 98 % of control and 116 % of control; the T/C under setting [4] was 115 % of control.

For `CNC(=O)OCc1c(COC(=O)NC)c(-c2ccc(Cl)cc2Cl)n2c1CCC2`, the T/C (dose: 100.0 mg/kg/injection, schedule: Q01DX009 (ip), vehicle: other) was 158 % of control.

`ClC1=CCCCC1`: the T/C (dose: 150.0 mg/kg/injection, schedule: Q01DX009 (ip), vehicle: saline) was 120 % of control; the T/C (dose: 225.0 mg/kg/injection, schedule: Q01DX009 (ip), vehicle: saline) is 115 % of control; the T/C (dose: 335.0 mg/kg/injection, schedule: Q01DX009 (ip), vehicle: saline) was 120 % of control.

With `Cc1ccccc1N=C(N)Nc1ccccc1C`, the T/C (dose: 6.25 mg/kg/injection, schedule: Q04DX003 (ip), vehicle: saline with Tween-80) is 105 % of control; the T/C (dose: 12.5 mg/kg/injection, schedule: Q04DX003 (ip), vehicle: saline with Tween-80) is 94 % of control; the T/C (dose: 25.0 mg/kg/injection, schedule: Q04DX003 (ip), vehicle: saline with Tween-80) is 100 % of control.

For `Cc1nc2nc(C(F)(F)F)[nH]c2nc1C`, the T/C under setting [7] is 99 % of control, the T/C under setting [8] is 105 % of control, the T/C under setting [3] is 102 % of control and the T/C under setting [4] is 94 % of control.

Regarding `Nc1cc(=O)n(-c2ccccc2)[nH]1`, the T/C reads like this: under setting [8], 105 % of control; under setting [3], 102 % of control; under setting [4], 109 % of control.

`COC1(c2ccccc2)CN(Cc2ccccc2)CCO1` (stereo unspecified): the T/C by setting is: under setting [5], 113 % of control; under setting [6], 118 % of control; under setting [1], 113 % of control; (dose: 200.0 mg/kg/injection, schedule: Q01DX009 (ip), vehicle: Klucel (hydroxypropylcellulose) (HPC)) 95 % of control; under setting [2], 113 % of control.

For the compound `Nc1ccc(/C=C\c2nccc3ccccc23)cc1`, the T/C is 114 % of control (dose: 0.39 mg/kg/injection, schedule: Q01DX009 (ip), vehicle: saline with Tween-80); 107 % of control (dose: 0.78 mg/kg/injection, schedule: Q01DX009 (ip), vehicle: saline with Tween-80); 123 % of control (dose: 0.78 mg/kg/injection, schedule: Q01DX009 (ip), vehicle: saline); 123 % of control (dose: 1.56 mg/kg/injection, schedule: Q01DX009 (ip), vehicle: saline); 89 % of control (dose: 3.13 mg/kg/injection, schedule: Q01DX009 (ip), vehicle: saline with Tween-80); 113 % of control (dose: 3.13 mg/kg/injection, schedule: Q01DX009 (ip), vehicle: saline).
